Test results published in patent EP2601945A1 (Thomale, Jürgen, priority 2011, dated 2013).
Entries after “also recorded” stand apart in the source; their conditions may differ.

Tests used:
[1] = system: Pt-GG adducts in DNA; assay: In vivo screening for cis-platin uptake inhibitors and DPH co-administration, ICA of Pt-GG adducts; set-up: species or system mice
Protocol: (§1) The sacrificed animals were immediately dissected. Kidneys and lungs were submerged in embedding medium (Tissue-Tek O.C.T. Compound) and frozen in liquid nitrogen. Cochleae were dissected and fixed by intralabyrinthine perfusion with Carnoy's solution (3 hours; for DNA adduct staining) or with formaldehyde (4 % in PBS; 1 hour; for OCT protein staining). Cochleae were decalcified in EDTA solution (10 % w/v in PBS) for 3 days and then placed in sucrose solutions (5 % in PBS for 12 hours and 15 % in PBS for 5 hours). After that samples were imbedded in Tissue-Tek medium, frozen and cryosections of 10 µm cut.
(§2) Frozen tissue sections of the inner ear or kidneys on ImmunoSelect slides were fixed in methanol at -20°C for at least 2 hours or overnight and then rehydrated for 10 minutes in PBS, at room temperature. To provide better antibody penetration in the tissue structures the samples underwent alkaline permeabilisation of cytoplasmic and nuclear membranes for 5 minutes at 0°C, followed by washing in PBS at room temperature for 5 minutes. The proteolytic cleavage of cytoplasmic and nuclear proteins was performed in two steps. At first, a pre-warmed pepsin solution (60 µg /ml for cell culture or 100 µg/ml for tissue sections in PBS/HCl) was applied onto the tissue sections and incubated for 10 minutes at 37°C in a humidified chamber. The incubation with pepsin was followed by washing in PBS for 10 minutes at room temperature. In a second step tissue sections were incubated with pre-warmed proteinase K solution (40 µg/ml for cell cultures or 50-100 µg /ml for tissue sections in proteinase K buffer) for 10 minutes at 37°C in a humidified chamber. Subsequently the sections were washed in 0.2 % glycine in PBS for 10 minutes at room temperature. Non-specific binding of the antibodies was inhibited by incubation with a blocking solution of 1 % casein in PBS for 30 minutes at room temperature. The samples were then incubated with a monoclonal antibody (R-C18, Liedert et al., 2006) specific for Pt-GG adducts in DNA (0.1 µg/ml in 0.1 % BSA/PBS) over night at 4°C in the humidified chamber. Subsequently, the slides were washed in 0.05 % Tween 20 in PBS for 5 minutes at room temperature and then in PBS for 5 minutes. The incubation with secondary Cy3-labeled rabbit anti-(rat Ig) antibodies, was performed (0.2 µg/ml in 0.1 % BSA/PBS) for 60 minutes at 37°C in the humidified chamber, followed by washing in 0.05 % Tween 20 in PBS for 5 minutes at room temperature and then in PBS for 5 minutes. The nuclear DNA was counterstained with DAPI (1 µg/ml in PBS) for 30 minutes at room temperature. The slides were then washed in PBS. Finally, the samples were embedded with a densification compound "[…]". The quantification of immuno- and DNA-fluorescence was performed by means of a microscope-coupled digital image analysis system ACAS 6.0 Cytometry Analysis System. Adduct levels in the nuclear DNA of individual cells were calculated by normalizing antibody-derived fluorescence signals to the corresponding DNA content of the same nucleus, and were expressed as arbitrary fluorescence units (AFUs). Data were assigned to specific cell types as determined by histochemistry.
The mice were separated into two groups for pretreatment with low or high doses of the test compounds. […] The low dose group received half the dose of the high dose group (50, 50, 30 or 10 mg/kg, respectively). […] Cochleae and kidneys were dissected for immunostaining and ICA analyses of Pt-GG adduct levels in specific cell types (Figure 8). In tissue sections from mice pretreated with quinine or butylscopolamine no inhibition of DNA platination was observed, independent of the dosing, in either of the three target cell types (renal tubulus epithelium cells (Figure 8 A), cochlear marginal cells (Figure 8B) and outer hair cells (Figure 8 C)). […]

[2] = system: human cancer cell lines established from tumors (lung, bladder, testis); assay: Co-application of cis-platin and DPH to cancer cell lines: apoptosis by Annexin V staining and FACS analysis; assay type: cell-based; conditions: cis-platin alone or in combination with DPH
[3] = assay type: in vivo, mice
Protocol: Since the protective effect of DPH for the cochlea may be mediated by blocking an ion transporter being relevant for the physiological function of the target cells, an additional experiment was done to verify whether a treatment with DPH alone alters the hearing capability of the mice. For this, five animals measured for their basal auditory sensitivity with the BAER test were treated 24 h later with a single dose of DPH (57 mg/kg), and were re-examined one hour later again by the BAER test.

[4] = system: human cancer cell lines established from tumors (lung, bladder, testis); assay: Co-application of cis-platin and DPH to cancer cell lines: DNA adducts by ICA; assay type: cell-based; conditions: cis-platin alone or in combination with DPH
[5] = system: Kras/p53 deficient mice; assay: Survival upon repetitive cis-platin treatment; assay type: in vivo; conditions: repetitive cis-platin 9 mg/kg in combination with DPH 50 mg/kg versus cis-platin alone (Figure 16)
[6] = system: Pt-GG adducts in DNA; assay: Immunocytological assay (ICA) of Pt-GG adducts in kidney and cochlea cells after cis-platin treatment; assay type: in vivo, mice
Protocol: as §1, §2
24 hours later, the inner ears and kidneys were dissected, kidneys were frozen immediately and cochleae were fixed and decalcified. Cryosections (10 µm) prepared from the tissues were placed onto specific adhesion slides. Slides were then immunostained for the visualization of platinum-guanine-guanine (Pt-GG) intrastrand adducts in the nuclei of individual cells by using the adduct-specific monoclonal antibody R-C18 in an immunocytological assay (ICA) (Liedert et al., 2006). The tissue sections were then stained with a secondary Cy3-labeled goat-anti-rat antibody (Cy3), counterstained with DAPI for nuclear DNA, and analyzed in the fluorescence microscope (Figure 1). Serial sections from the same tissues were stained for morphological orientation with hematoxyline and eosin (H&E). […]

[7] = system: Pt-GG adducts in DNA; assay: ICA of Pt-GG adducts in cochlear cells of XPA-/- versus wild type mice; assay type: in vivo
Protocol: Frozen tissue sections of the inner ear or kidneys on ImmunoSelect slides were fixed in methanol at -20°C for at least 2 hours or overnight and then rehydrated for 10 minutes in PBS, at room temperature. To provide better antibody penetration in the tissue structures the samples underwent alkaline permeabilisation of cytoplasmic and nuclear membranes for 5 minutes at 0°C, followed by washing in PBS at room temperature for 5 minutes. The proteolytic cleavage of cytoplasmic and nuclear proteins was performed in two steps. At first, a pre-warmed pepsin solution (60 µg /ml for cell culture or 100 µg/ml for tissue sections in PBS/HCl) was applied onto the tissue sections and incubated for 10 minutes at 37°C in a humidified chamber. The incubation with pepsin was followed by washing in PBS for 10 minutes at room temperature. […] The quantification of immuno- and DNA-fluorescence was performed by means of a microscope-coupled digital image analysis system ACAS 6.0 Cytometry Analysis System. Adduct levels in the nuclear DNA of individual cells were calculated by normalizing antibody-derived fluorescence signals to the corresponding DNA content of the same nucleus, and were expressed as arbitrary fluorescence units (AFUs). Data were assigned to specific cell types as determined by histochemistry. […]

[8] = DPH 0 to 57 mg/kg i.p. 30 minutes prior to cis-platin 10 mg/kg (Figure 9)
[9] = DPH 57 mg/kg 30 minutes before cis-platin 12.5 mg/kg, 2, 16, 48, 72 hours
[10] = high dose of 60 mg/kg i.p. 1 h before cis-platin 10 mg/kg, 24 h
[11] = cis-platin plus DPH, repetitive treatment
[12] = cis-platin 10 mg/kg i.p., cochlea, 24 h (Figure 3 B)
[13] = cis-platin 10 mg/kg i.p., kidney
[14] = cis-platin 10 mg/kg i.p., kidney, 24 h (Figure 3 A)

CN(C)CCOC(c1ccccc1)c1ccccc1 [DPH, diphenhydramine]
adduct accumulation in proximal tubule cells and marginal cells [1, 8]: dose-dependent inhibition | adduct levels in distal tubule cells and basal and intermediate cells of the stria vascularis [1, 8]: No significant alterations | DNA platination in marginal and outer hair cells versus cis-platin alone, all time points [1, 9]: drastically decreased | capability to repair the DNA damage [1, 9]: no obvious differences | inhibition of the formation of Pt-adducts in outer hair cells and marginal cells ([1]; DPH along with cis-platin (description)): about 70% | formation of Pt-adducts in dorsal root ganglion (DRG) neurons ([1]; cis-platin 15 mg/kg with DPH 50 mg/kg, 24 h (Figure 9 C)): inhibited; also recorded: significantly reduced | shielding from DNA damage, cochlear marginal cells [1, 10]: 70% | shielding from DNA damage, outer hair cells [1, 10]: about 50% | shielding from DNA damage, proximal tubule cells [1, 10]: 75% | adduct levels in other cell types of the inner ear ([1]; repetitive cis-platin 5 mg/kg every second day plus DPH 57 mg/kg): remained unchanged | adducts in target cells of kidney and inner ear versus cis-platin alone group ([1]; repetitive cis-platin 5 mg/kg every second day plus DPH 57 mg/kg (Figure 12)): by far less adducts | effect on the induction of apoptosis [2]: no inhibitory effect | side effects of prolonged treatment ([3]; DPH alone, up to eight applications): no obvious side effects | general health status versus cis-platin alone group [3, 11]: better | weight loss versus cis-platin alone group [3, 11]: less severe | effect on the formation of DNA adducts (ICA) [4]: no inhibitory effect | survival [5]: improved survival rates

N.N.[Cl][Pt][Cl] [cis-platin, cis-diaminedichloro-platinum(II)]
levels of Pt-GG adducts, OHC vs. adjacent cells in the organ of Corti ([6]; cis-platin 10 mg/kg i.p.): 11 fold | levels of Pt-GG adducts, marginal cells compared to other cell types in the stria vascularis ([6]; cis-platin 10 mg/kg i.p.): 5 fold | levels of Pt-GG adducts, adjacent cells in the organ of Corti [6, 12]: 1.19 AFUs | levels of Pt-GG adducts, other cell types in the stria vascularis [6, 12]: 2.08 AFUs | levels of Pt-GG adducts, OHC (outer hair cells) ([6]; cis-platin 10 mg/kg i.p., cochlea, organ of Corti, 24 h (Figure 3 B)): 13.26 AFUs | levels of Pt-GG adducts, marginal cells ([6]; cis-platin 10 mg/kg i.p., cochlea, stria vascularis, 24 h (Figure 3 B)): 9,85 AFUs | platination level, distal tubular cells versus glomerulus cells [6, 13]: twice as high | platination level, proximal tubular cells versus distal tubular cells [6, 13]: 7 fold | platination level (Pt-GG adducts), distal tubular cells [6, 14]: 2.61 AFUs | platination level (Pt-GG adducts), glomerulus cells [6, 14]: 0.97 AFUs | platination level (Pt-GG adducts), proximal tubular cells [6, 14]: 18.97 AFUs | adduct levels of non-marginal cells of the stria vascularis, lower than marginal cells ([6]; cis-platin 10 mg/kg single dose, 24 h, turns of the cochlea (Figure 4)): 10 fold | adduct levels in inner ear cis-platin target cells, XPA -/- mice versus wild type littermates ([7]; cis-platin cumulated dose 3.5 mg/kg (Figure 7 B legend)): more than 3 times | levels of DNA damage in marginal cells, XPA-/- mice compared to wild type littermates ([7]; cis-platin cumulative dose 3.5 mg/kg (Figure 7 B)): about 2.7 fold
